# Measured values reported in patent EP0120613A1, “Penem derivatives and precursors” (BEECHAM GROUP PLC, priority 1983, dated 1984).
# What was measured:
# [1] = test system: range of resistant strains; test: MIC of Example 1b alone, microtitre technique (Table 3); assay type: cell-based; details: Ex 1b alone; strains of Table 3
# Staphylococci Russell = test: Antibacterial activity of alkylidene-penems (MIC); assay type: cell-based; details: compound alone
# Staphylococci Oxford = test: Antibacterial activity of alkylidene-penems (MIC); assay type: cell-based; details: compound alone
# E. coli JT39 (RTEM) = test: Effect of alkylidene-penems on the MIC of amoxycillin; assay type: cell-based; details: Amoxycillin alone
# S Aureus Russell = test: as above; assay type: cell-based; details: Amoxycillin alone
# Kleb aerogenes = test: as above; assay type: cell-based, Klebsiella aerogenes; details: Amoxycillin alone
# C.freundii T562 = test: MIC of broad spectrum cephalosporins with Example 1b, microtitre technique; assay type: cell-based
# E.aerogenes 53 = test: as above; assay type: cell-based
# E.cloacae 4508 = test: as above; assay type: cell-based
# S.marcescens V697 = test: as above; assay type: cell-based
# Ps.aeruginosa Charlier = test: as above; assay type: cell-based
# E.cloacae P383 = test: as above; assay type: cell-based
# E.cloacae 159/167 = test: as above; assay type: cell-based
# C.freundii 423 = test: as above; assay type: cell-based
# S.marcescens HCN 3956 = test: as above; assay type: cell-based
# E.aerogenes 55 = test: as above; assay type: cell-based
# E.cloacae Dokt 5 = test: as above; assay type: cell-based
# M.morganii 978 = test: as above; assay type: cell-based
# E.cloacae V692/80 = test: as above; assay type: cell-based
# Ps.aeruginosa Badia IR = test: as above; assay type: cell-based
# E.aerogenes P99 = test: as above; assay type: cell-based
# C.freundii T1739 = test: as above; assay type: cell-based
# E.coli JT410 = test: Effect of alkylidene-penems on the MIC of cephaloridine; assay type: cell-based; details: Cephaloridine alone
smiles,measurement,setting,value
"O=C(O)C1=CSC2/C(=C\c3ccco3)C(=O)N12 (racemic) [Example 1b, (5 RS) Sodium (Z) -6- Furfurylidenepenem - 3 - carboxylate]",MIC,[1],> 80 µg/mL
same,MIC,Staphylococci Russell,16.0 µg/mL
same,MIC,Staphylococci Oxford,16.0 µg/mL
"CCSC1=C(C(=O)O)N2C(=O)/C(=C/c3ccco3)C2S1 (racemic) [Example 2b, (5RS) Sodium 2-Eth^ylthio - (Z)-6-furfurylidenepenem-3-carboxylate]",MIC,Staphylococci Russell,10.0 µg/mL
same,MIC,Staphylococci Oxford,5.0 µg/mL
"O=C(O)C1=C(SCCO)SC2/C(=C\c3ccco3)C(=O)N12 (racemic) [Example 3b, (5RS) Sodium (Z)-6-Furfurylidene-2-(2-hydroxyethylthio) penem-3-carboxylate]",MIC,Staphylococci Russell,12.5 µg/mL
same,MIC,Staphylococci Oxford,12.5 µg/mL
"CCSC1=C(C(=O)O)N2C(=O)/C(=C/c3ccc(COC(C)=O)o3)C2S1 (racemic) [Example 5b, (SRS) Sodium (z)-6-(5-Acetoxymethylfurfurylidene)-2-ethylthiopenem-3-carboxylate]",MIC,Staphylococci Russell,12.5 µg/mL
same,MIC,Staphylococci Oxford,3.1 µg/mL
"O=C(O)C1=CSC2/C(=C\c3cccs3)C(=O)N12 (racemic) [Example 7b, (5RS) Sodium (Z)-6-(2-thienyl)methylenepenem-3-carboxylate]",MIC,Staphylococci Russell,50 µg/mL
same,MIC,Staphylococci Oxford,100 µg/mL
"O=C(O)C1=CSC2/C(=C\c3ccsc3)C(=O)N12 (racemic) [Example 8b, (5RS) Sodium (Z)-6-(3-thienyl)methylenepenem-3-carboxylate]",MIC,Staphylococci Russell,12.5 µg/mL
same,MIC,Staphylococci Oxford,50 µg/mL
"O=C(O)C1=CSC2/C(=C/c3ccco3)C(=O)N12 (racemic) [Example 9b, (5RS) Sodium (E)-6-Furfurylidenepenem-3-carboxylate]",MIC,Staphylococci Russell,125 µg/mL
same,MIC,Staphylococci Oxford,62 µg/mL
"O=C(O)C1=CSC2/C(=C\c3ccc(Br)o3)C(=O)N12 (racemic) [Example 11b, (5RS) Sodium (Z)-6-(5-Bromofurfurylidene)penem-3-carboxylate]",MIC,Staphylococci Russell,50 µg/mL
same,MIC,Staphylococci Oxford,50 µg/mL
"O=C(O)C1=CSC2/C(=C/c3ccoc3)C(=O)N12 (racemic) [Example 12b, (5RS) Sodium (E)-6-(3-Furylmethylene)penem-3-carboxylate]",MIC,Staphylococci Russell,50 µg/mL
same,MIC,Staphylococci Oxford,100 µg/mL
CC1(C)S[C@@H]2[C@H](NC(=O)[C@H](N)c3ccc(O)cc3)C(=O)N2[C@H]1C(=O)O [Amoxycillin],MIC (µg/ml) of antibiotic,E. coli JT39 (RTEM),2000 µg/mL
same,MIC (µg/ml) of antibiotic,S Aureus Russell,500 µg/mL
same,MIC (µg/ml) of antibiotic,Kleb aerogenes,500 µg/mL
CO/N=C(\C(=O)N[C@@H]1C(=O)N2C(C(=O)O)=C(COC(C)=O)CS[C@H]12)c1csc(N)n1 [Cefotaxime],MIC Cephalosporin,C.freundii T562; Cefotaxime alone,40 µg/mL
same,MIC Cephalosporin,E.aerogenes 53; Cefotaxime alone,>80 µg/mL
same,MIC Cephalosporin,E.cloacae 4508; Cefotaxime alone,>80 µg/mL
same,MIC Cephalosporin,S.marcescens V697; Cefotaxime alone,>80 µg/mL
same,MIC Cephalosporin,Ps.aeruginosa Charlier; Cefotaxime alone,>80 µg/mL
same,MIC Cephalosporin,E.cloacae P383; Cefotaxime alone,>80 µg/mL
same,MIC Cephalosporin,E.cloacae 159/167; Cefotaxime alone,>80 µg/mL
same,MIC Cephalosporin,C.freundii 423; Cefotaxime alone,40 µg/mL
same,MIC Cephalosporin,S.marcescens HCN 3956; Cefotaxime alone,80 µg/mL
same,MIC Cephalosporin,E.aerogenes 55; Cefotaxime alone,80 µg/mL
same,MIC Cephalosporin,E.cloacae Dokt 5; Cefotaxime alone,>80 µg/mL
same,MIC Cephalosporin,M.morganii 978; Cefotaxime alone,>80 µg/mL
same,MIC Cephalosporin,E.cloacae V692/80; Cefotaxime alone,>80 µg/mL
same,MIC Cephalosporin,Ps.aeruginosa Badia IR; Cefotaxime alone,>80 µg/mL
same,MIC Cephalosporin,E.aerogenes P99; Cefotaxime alone,>80 µg/mL
same,MIC Cephalosporin,C.freundii T1739; Cefotaxime alone,40 µg/mL
CC(C)(O/N=C(\C(=O)N[C@@H]1C(=O)N2C(C(=O)[O-])=C(C[n+]3ccccc3)CS[C@H]12)c1csc(N)n1)C(=O)O [Ceftazidine],MIC Cephalosporin,C.freundii T562; Ceftazidine alone,80 µg/mL
same,MIC Cephalosporin,E.aerogenes 53; Ceftazidine alone,>80 µg/mL
same,MIC Cephalosporin,E.cloacae 4508; Ceftazidine alone,>80 µg/mL
same,MIC Cephalosporin,S.marcescens V697; Ceftazidine alone,80 µg/mL
same,MIC Cephalosporin,Ps.aeruginosa Charlier; Ceftazidine alone,80 µg/mL
same,MIC Cephalosporin,E.cloacae P383; Ceftazidine alone,>80 µg/mL
same,MIC Cephalosporin,E.cloacae 159/167; Ceftazidine alone,>80 µg/mL
same,MIC Cephalosporin,C.freundii 423; Ceftazidine alone,80 µg/mL
same,MIC Cephalosporin,S.marcescens HCN 3956; Ceftazidine alone,5 µg/mL
same,MIC Cephalosporin,E.aerogenes 55; Ceftazidine alone,80 µg/mL
same,MIC Cephalosporin,E.cloacae Dokt 5; Ceftazidine alone,>80 µg/mL
same,MIC Cephalosporin,M.morganii 978; Ceftazidine alone,2.5 µg/mL
same,MIC Cephalosporin,E.cloacae V692/80; Ceftazidine alone,>80 µg/mL
same,MIC Cephalosporin,Ps.aeruginosa Badia IR; Ceftazidine alone,>80 µg/mL
same,MIC Cephalosporin,E.aerogenes P99; Ceftazidine alone,80 µg/mL
same,MIC Cephalosporin,C.freundii T1739; Ceftazidine alone,80 µg/mL
O=C(Cc1cccs1)N[C@@H]1C(=O)N2C(C(=O)[O-])=C(C[n+]3ccccc3)CS[C@H]12 [Cephaloridine],MIC (µg/ml) of antibiotic,E.coli JT410,62 to 125 µg/mL
